Source: patent US11230538B2, “Herbicides” (SYNGENTA PARTICIPATIONS AG, priority 2016, dated 2022)

Assays:
Format in all cases: in vivo
[1] = system: Alopecurus myosuroides (ALOMY); assay: B1 Pre-emergence herbicidal activity; design: key: 5=total damage to plant; 0=no damage to plant; conditions: pre-emergence application, rate 1000 g/ha, evaluated after 13 days
How it was run: (§1)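 Seeds sown in standard soil in pots, held one day in a glasshouse (24/16 °C day/night, 14 h light, 65% humidity), then sprayed pre-emergence with compound in acetone/water (50:50) with 0.5% Tween 20. Plants grown under the same conditions, watered twice daily; damage scored after 13 days (0 = none, 5 = total).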

[2] = system: Avena fatua (AVEFA); assay: B1 Pre-emergence herbicidal activity; design: key: 5=total damage to plant; 0=no damage to plant; conditions: pre-emergence application, rate 1000 g/ha, evaluated after 13 days
How it was run: as §1

[3] = system: Triticum aestivium (TRZAW); assay: B1 Pre-emergence herbicidal activity; design: key: 5=total damage to plant; 0=no damage to plant; conditions: pre-emergence application, rate 1000 g/ha, evaluated after 13 days
How it was run: as §1

[4] = system: Echinochloa crus-galli (ECHCG); assay: B1 Pre-emergence herbicidal activity; design: key to Pre-emergence herbicidal activity, ECHCG (damage score 0-5): 5=total damage to plant; 0=no damage to plant; conditions: pre-emergence application, rate 1000 g/ha, evaluated after 13 days
How it was run: as §1

[5] = system: Lolium perenne (LOLPE); assay: B1 Pre-emergence herbicidal activity; design: key to Pre-emergence herbicidal activity, LOLPE (damage score 0-5): 5=total damage to plant; 0=no damage to plant; conditions: pre-emergence application, rate 1000 g/ha, evaluated after 13 days
How it was run: as §1

[6] = system: Setaria fabenr (SETFA); assay: B1 Pre-emergence herbicidal activity; design: key to Pre-emergence herbicidal activity, SETFA (damage score 0-5): 5=total damage to plant; 0=no damage to plant; conditions: pre-emergence application, rate 1000 g/ha, evaluated after 13 days
How it was run: as §1

[7] = system: Avena fatua (AVEFA); assay: B2 Post-emergence herbicidal activity; conditions: post-emergence application, rate 1000 g/ha, evaluated after 13 days
How it was run: (§2)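 Plants grown 8 days in standard soil in pots, then sprayed post-emergence with active ingredient in acetone/water (50:50) with 0.5% Tween 20. Glasshouse at 24/16 °C day/night, 14 h light, 65% humidity, watered twice daily. Damage scored after 13 days on a 0–5 scale (5 = total damage).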

[8] = system: Echinochloa crus-galli (ECHCG); assay: B2 Post-emergence herbicidal activity; design: key to Post-emergence herbicidal activity, ECHCG (damage score 0-5): 5=total damage to plant; 0=no damage to plant; conditions: post-emergence application, rate 1000 g/ha, evaluated after 13 days
How it was run: as §2

[9] = system: Lolium perenne (LOLPE); assay: B2 Post-emergence herbicidal activity; conditions: post-emergence application, rate 1000 g/ha, evaluated after 13 days
How it was run: as §2

[10] = system: Alopecurus myosuroides (ALOMY); assay: B2 Post-emergence herbicidal activity; design: key: 5=total damage to plant; 0=no damage to plant; conditions: post-emergence application, rate 1000 g/ha, evaluated after 13 days
How it was run: as §2

[11] = system: Setaria fabenri (SETFA); assay: B2 Post-emergence herbicidal activity; design: key: 5=total damage to plant; 0=no damage to plant; conditions: post-emergence application, rate 1000 g/ha, evaluated after 13 days
How it was run: as §2

[12] = system: Triticum aestivium (TRZAW); assay: B2 Post-emergence herbicidal activity; design: key: 5=total damage to plant; 0=no damage to plant; conditions: post-emergence application, rate 1000 g/ha, evaluated after 13 days
How it was run: as §2

Row | Structure (SMILES) | Pre-emergence herbicidal activity, ALOMY (damage score 0-5) [1] | Pre-emergence herbicidal activity, AVEFA (damage score 0-5) [2] | Pre-emergence herbicidal activity, TRAZW (damage score 0-5) [3] | Pre-emergence herbicidal activity, ECHCG (damage score 0-5) [4] | Pre-emergence herbicidal activity, LOLPE (damage score 0-5) [5] | Pre-emergence herbicidal activity, SETFA (damage score 0-5) [6] | Post-emergence herbicidal activity, AVEFA (damage score 0-5) [7] | Post-emergence herbicidal activity, ECHCG (damage score 0-5) [8] | Post-emergence herbicidal activity, LOLPE (damage score 0-5) [9] | Post-emergence herbicidal activity, ALOMY (damage score 0-5) [10] | Post-emergence herbicidal activity, SETFA (damage score 0-5) [11] | Post-emergence herbicidal activity, TRAZW (damage score 0-5) [12]
1 | C#CCN(C(=O)CC)c1ccc(-c2cncc(F)c2)nc1C(F)(F)F [Compound C94] | 0 | 1 | 0 | 2 | 1 | 5 | 2 | 4 | 2 | 0 | 5 | 0
2 | O=C(Nc1ccc(-c2cncnc2)nc1C(F)(F)F)C1CC1 [Compound C109] | 0 | 2 | 0 | 4 | 1 | 4 | 3 | 5 | 2 | 0 | 5 | 1
3 | CCC(=O)Nc1ccc(-c2cncc(F)c2)nc1C#N [Compound C115] | 0 | 0 | 0 | 5 | 1 | 5 | 2 | 4 | 1 | 0 | 5 | 0
4 | CC(=O)N(C(C)=O)c1ccc(-c2cncnc2)nc1C(F)(F)F [Compound C6] | 1 | 4 | 1 | 4 | 2 | 4 | 4 | 4 | 4 | 1 | 5 | 1
5 | O=C(Nc1ccc(-c2cncnc2)nc1C(F)(F)F)C(Cl)(Cl)Cl [Compound C60] | 0 | 2 | 0 | 3 | 0 | 5 | 3 | 4 | 3 | 0 | 4 | 0
6 | O=C(CC(F)(F)F)Nc1ccc(-c2cncc(F)c2)nc1C(F)(F)F [Compound C56] | 0 | 1 | 0 | 3 | 0 | 4 | 3 | 4 | 2 | 0 | 4 | 1
